Laboratory results from patent publication US20120252741A1, “NOVEL SEMI-SYNTHETIC GLYCOPEPTIDES AS ANTIBACTERIAL AGENTS” (priority 2008, published 2012).
Values after ≈ are worked out from the molar mass of the structure shown. Like-named read-outs stand apart in the source and are kept apart here.

Key:
Assay type in all cases: cell-based
[1] = system: Staphylococcus epidermidis 831 (MRSE); test: MIC, broth microdilution, SE 831; details: Staphylococcus epidermidis, read-out: MIC SE 831
Method: (§1) Antibacterial activity in vitro is investigated by broth microdilution method in Meuller-Hinton broth as recommended by NCCLS. All strains tested are clinical isolates either sensitive or resistant to natural glycopeptides. MIC values were determined using the CLSI-recommended broth microdilution procedure (Clinical and Laboratory Standards Institute, Methods for Dilution Antimicrobial Susceptibility Tests for Bacteria That Grow Aerobically; Approved Standard-Seventh Edition.). Automated liquid handlers (Multidrop 384, Labsystems, Helsinki, Finland; Biomek 2000 and Multimek 96, Beckman Coulter, Fullerton Calif.) were used to conduct serial dilutions and liquid transfers. The MIC value for vancomycin is given for comparison. The abbreviations for organisms tested are as follow: SA 100—Staphylococcus aureus 100 (ATCC 29213); SA 757—Staphylococcus aureus 757 (MRSA); SA 2012—Staphylococcus aureus 2012 (VISA); SE 835—Staphylococcus epidermidis 835; SE 831—Staphylococcus epidermidis 831 (MRSE); EFc 101—Enterococcus faecalis 101 (ATCC 29212); EFc 848—Enterococcus faecalis 848 (VRE, Van A); EFcm 800—Enterococcus faecium 800; EFcm 752—Enterococcus faecium 752 (VRE, Van A); SPNE 1195—Streptococcus pneumoniae 1195 (ATCC 49619); SPY 712—Streptococcus pyogenes 712.

[2] = system: Staphylococcus epidermidis 835; test: MIC, broth microdilution, SE 835; details: Staphylococcus epidermidis, 835, class symbols, read-out: MIC SE 835
Method: as §1

[3] = system: Streptococcus pneumoniae 1195 (ATCC 49619); test: MIC, broth microdilution, SPNE 1195; details: Streptococcus pneumoniae, ATCC49619, class symbols, read-out: MIC S PNE 1195
Method: as §1

[4] = system: Staphylococcus aureus 100 (ATCC 29213); test: MIC, broth microdilution, SA 100; details: Staphylococcus aureus, ATCC29213, class symbols, read-out: MIC SA 100
Method: as §1

[5] = system: Enterococcus faecalis 101 (ATCC 29212); test: MIC, broth microdilution, EFc 101; details: Enterococcus faecalis, ATCC29212, class symbols, read-out: MIC E FC 101
Method: as §1

[6] = system: Staphylococcus aureus 757 (MRSA); test: MIC, broth microdilution, SA 757; details: read-out: MIC SA 757
Method: as §1

[7] = system: Enterococcus faecalis 848 (VRE, Van A); test: MIC, broth microdilution, EFc 848; details: VRE, Van A, class symbols, read-out: MIC E FC 848
Method: as §1

[8] = system: Streptococcus pyogenes 712; test: MIC, broth microdilution, SPY 712; details: Streptococcus pyogenes, 712, class symbols, read-out: MIC S PYO 712
Method: as §1

[9] = system: Enterococcus faecium 752 (VRE, Van A); test: MIC, broth microdilution, EFcm 752; details: VRE, Van A, class symbols, read-out: MIC E FCM 752
Method: as §1

[10] = system: Staphylococcus aureus 2012 (VISA); test: MIC, broth microdilution, SA 2012; details: read-out: MIC SA 2012
Method: as §1

Enterococcus faecium 800 = test: MIC, broth microdilution, EFcm 800; details: Enterococcus faecium, 800, class symbols, read-out: MIC E FCM 800
Method: as §1

[11] = Table 2, in the presence of 0.002% Polysorbate 80, class symbols
[12] = Table 2, in the presence of 0.002% Polysorbate 80

| MIC ([1]; Table 1, class symbols) | MIC ([2]; Table 1) | MIC ([3]; Table 1) | MIC ([4]; Table 1) | MIC ([5]; Table 1) | MIC ([6]; Table 1, class symbols) | MIC ([7]; Table 1) | MIC ([8]; Table 1) | MIC ([9]; Table 1) | MIC ([10]; Table 1, class symbols) | MIC (Enterococcus faecium 800; Table 1) | MIC [1, 11] | MIC [2, 12] | MIC [3, 12] | MIC [4, 12] | MIC [5, 12] | MIC [6, 11] | MIC [7, 12] | MIC [8, 12] | MIC [9, 12] | SMILES | other results |
| --- | --- | --- | --- | --- | --- | --- | --- | --- | --- | --- | --- | --- | --- | --- | --- | --- | --- | --- | --- | --- | --- |
| 0.01 to 0.5 µg/mL (≈ 0.00585 to 0.292 µM) | 0.01 to 0.5 µg/mL (≈ 0.00585 to 0.292 µM) | 0.5 to 1 µg/mL (≈ 0.292 to 0.585 µM) | 0.5 to 1 µg/mL (≈ 0.292 to 0.585 µM) | 0.01 to 0.5 µg/mL (≈ 0.00585 to 0.292 µM) | 0.01 to 0.5 µg/mL (≈ 0.00585 to 0.292 µM) | 2 to 4 µg/mL (≈ 1.17 to 2.34 µM) | 0.01 to 0.5 µg/mL (≈ 0.00585 to 0.292 µM) | 1 to 2 µg/mL (≈ 0.585 to 1.17 µM) | 1 to 2 µg/mL (≈ 0.585 to 1.17 µM) | 0.01 to 0.5 µg/mL (≈ 0.00585 to 0.292 µM) |  |  |  |  |  |  |  |  |  | CCOCCOCCOc1ccc(S(=O)(=O)NC(=O)C[C@@H]2NC(=O)[C@H](NC(=O)[C@@H](CC(C)C)NC)[C@H](O)c3ccc(c(Cl)c3)Oc3cc4cc(c3O[C@@H]3O[C@H](CN)[C@@H](O)[C@H](O)[C@H]3O)Oc3ccc(cc3Cl)[C@@H](O)[C@@H]3NC(=O)[C@H](NC(=O)[C@@H]4NC2=O)c2ccc(O)c(c2)-c2c(O)cc(O)cc2[C@@H](C(=O)NC2C4CC5CC(C4)CC2C5)NC3=O)cc1 (some centres unmarked) [Compound 103] |  |
| 0.01 to 0.5 µg/mL (≈ 0.00589 to 0.295 µM) | 0.01 to 0.5 µg/mL (≈ 0.00589 to 0.295 µM) | 0.01 to 0.5 µg/mL (≈ 0.00589 to 0.295 µM) | 0.01 to 0.5 µg/mL (≈ 0.00589 to 0.295 µM) | 0.01 to 0.5 µg/mL (≈ 0.00589 to 0.295 µM) | 0.01 to 0.5 µg/mL (≈ 0.00589 to 0.295 µM) | 2 to 4 µg/mL (≈ 1.18 to 2.36 µM) | 0.01 to 0.5 µg/mL (≈ 0.00589 to 0.295 µM) | 0.5 to 1 µg/mL (≈ 0.295 to 0.589 µM) | 0.5 to 1 µg/mL (≈ 0.295 to 0.589 µM) | 0.01 to 0.5 µg/mL (≈ 0.00589 to 0.295 µM) |  |  |  |  |  |  |  |  |  | CN[C@H](CC(C)C)C(=O)N[C@H]1C(=O)N[C@@H](CC(=O)NS(=O)(=O)c2ccc(OCCOCCOC)cc2)C(=O)N[C@H]2C(=O)N[C@H]3C(=O)N[C@H](C(=O)N[C@H](C(=O)NC4C5CC6CC(C5)CC4C6)c4cc(O)cc(O)c4-c4cc3ccc4O)[C@H](O)c3ccc(c(Cl)c3)Oc3cc2cc(c3O[C@@H]2O[C@H](CN)[C@@H](O)[C@H](O)[C@H]2O)Oc2ccc(cc2Cl)[C@H]1O (some centres unmarked) [Compound 102] |  |
|  |  |  |  |  |  |  |  |  |  |  | 0.01 to 0.5 µg/mL | 0.01 to 0.5 µg/mL | 0.01 to 0.5 µg/mL | 0.01 to 0.5 µg/mL | 0.01 to 0.5 µg/mL | 0.01 to 0.5 µg/mL | 2 to 4 µg/mL | 0.01 to 0.5 µg/mL | 0.01 to 0.5 µg/mL | CCCCCCC(C)C(=O)NC(=O)C[C@@H]1NC(=O)[C@H](NC(=O)[C@@H](CC(C)C)NC)[C@H](O)c2ccc(c(Cl)c2)Oc2cc3cc(c2O[C@@H]2O[C@H](CO)[C@@H](O)[C@H](O)[C@H]2O[C@H]2C[C@](C)(N)[C@H](O)[C@H](C)O2)Oc2ccc(cc2Cl)[C@@H](O)[C@@H]2NC(=O)[C@H](NC(=O)[C@@H]3NC1=O)c1ccc(O)c(c1)-c1c(O)cc(O)cc1[C@@H](C(=O)NC1C3CC4CC(C3)CC1C4)NC2=O (some centres unmarked) [Compound 46] | MIC [10, 11]: 2 to 4 µg/mL; MIC (Enterococcus faecium 800; [12]): 0.01 to 0.5 µg/mL |
|  |  |  |  |  |  |  |  |  |  |  | 0.01 to 0.5 µg/mL | 0.01 to 0.5 µg/mL | 0.01 to 0.5 µg/mL | 0.01 to 0.5 µg/mL | 0.01 to 0.5 µg/mL | 0.01 to 0.5 µg/mL | > 16 µg/mL | 0.01 to 0.5 µg/mL | 4 to 8 µg/mL | CNCCOc1ccc(C(=O)NC(=O)C[C@@H]2NC(=O)[C@H](NC(=O)[C@@H](CC(C)C)NC)[C@H](O)c3ccc(c(Cl)c3)Oc3cc4cc(c3O[C@@H]3O[C@H](CO)[C@@H](O)[C@H](O)[C@H]3O[C@H]3C[C@](C)(N)[C@H](O)[C@H](C)O3)Oc3ccc(cc3Cl)[C@@H](O)[C@@H]3NC(=O)[C@H](NC(=O)[C@@H]4NC2=O)c2ccc(O)c(c2)-c2c(O)cc(O)cc2[C@@H](C(=O)NC2C4CC5CC(C4)CC2C5)NC3=O)cc1OCCNC (some centres unmarked) [Compound 152] | MIC [10, 11]: 1 to 2 µg/mL; MIC (Enterococcus faecium 800; [12]): 0.01 to 0.5 µg/mL |
